This is an account of results in US7034020B2, “Derivatives of butyric acid and uses thereof” (The University of Arkansas for Medical Science, priority 1999, dated 2006).

Several values for one entry are separate records, joined by “and”; a condition that tells them apart may be missing. Identical values can stand only once. Like-named read-outs stand apart in the source and are kept apart here.

The subject of data set [1] is total anti-ovalbumin antibody in the serum. As to the kind of experiment: Primary anti-ovalbumin antibody production in vivo (ELISA), derivatives on Days 1–3. Also on record: species or system C57BL/10 mice. Conditions: 0.091 mmol ip Days 1–3; serum day 10; versus saline. The method, then:
C57BL/10 mice are injected ip on Day 0 with ovalbumin followed by ip injections of saline, or one of three different butyrate derivatives on Days 1–3.
The butyrate derivatives are tested for their ability to suppress lymphocyte activity in vivo. C57BL/10 mice (5 mice/group) are injected ip with 100 μg of ovalbumin in conjunction with complete Freund's adjuvant on Day 0. In one experiment, the mice also receive one ip injection per day of the butyrate derivatives (0.091 mmol) on Days 1–3. Serum samples are obtained 10 days after the initial injection with ovalbumin, and tested for the presence of anti-ovalbumin antibodies using an ELISA. To perform the ELISA 96 well plates (Costar 3595) are first incubated with ovalbumin (100 μl/well of 100 μg/ml in PBS) overnight at 4° C. The plates are then washed 4 times with PBS and 0.5% Tween 20, blocked with 1% fetal calf serum for 30 minutes at 37° C., and washed again. Individual serum samples are added (diluted 1/100 or 1/1000 in PBS), and the plates are incubated for 2 hours at 20° C. The plates were next washed 7 times with PBS/Tween, and alkaline phosphate (AP)-labeled goat anti-mouse IgG, IgA, IgM (H+L) (Zymed) is added ( 1/1000) for 1 hour at 20° C. The plates are again washed 7 times with PBS/Tween, alkaline phosphate substrate (1 mg/ml) is added. After 10 minutes, Ig levels are quantified by an ELISA reader (absorbance 405 nm). The concentration of anti-ovalbumin is determined by comparison with a standard curve obtained using mouse anti-ovalbumin antibody (Sigma; St. Louis, Mo.). To measure isotype-specific anti-ovalbumin antibodies, serum samples (diluted at 1/300 or 1/1000) are incubated on the ovalbumin-coated plates as described above. […] Ig levels are presented as OD measurements.

In data set [2] the test system is KLH-specific Th1 cells (clone D3). As to the kind of experiment: IL-2-induced proliferation of Th1 cells in the presence of butyrate derivatives. The format is cell-based, C57BL/10 mice. Conditions: for Suppression of IL-2-induced proliferation of Th1 cells: 10% Con A CM, various concentrations, proliferation after 2 days. The method, then:
KLH-specific Th1 cells (clone D3) are stimulated with IL-2 (10% Con A CM) in the presence of different concentrations of n-butyrate or butyrate derivatives. In FIG. 2A Th1 cell proliferation is measured after 2 days. In FIG. 2B, the inhibitors are washed out after 24 hours, and the Th1 cells reincubated with fresh IL-2-containing medium. Proliferation of the Th1 cells restimulated with IL-2 in the absence of the inhibitors is measured after an additional 2 days. This experiment was repeated three times, and the proliferation data represents the means of the […] experiments.
The KLH-specific were developed in C57BL/10 mice, and characterized as Th1 clones based on their ability to secrete IL-2, but not IL-4. The Th1 clones were passed every 7–14 days using KLH, irradiated syngeneic spleen cells as antigen-presenting cells (APC), and IL-2-containing Con A CM using a previously described protocol (Gilbert et al., 1990).
To test the ability of the butyrate derivatives to suppress T cell activity […], Th1 cells [(5×10^4 cells/well in 96 well plates (Costar)] are stimulated with 10% IL-2-containing Con A CM in the presence of various concentrations of different butyrate derivatives. In some cultures, Th1 cell proliferation is measured after two days. In other cultures, the Th1 cells are washed after 24 hours, and fresh IL-2-containing medium is added. Proliferation is measured in the washed, IL-2-restimulated cultures after an additional 2 days.

For data set [3] the following is noted: humans; perfused at doses as high as 2 g/kg/day (Perrine et al., 1994); cited from earlier work.
The conditions of data set [4]: Daniel et al., 1989, cited from earlier work.
Data set [5] deals with Anti-HGG antibody in serum. As to the kind of experiment: Primary anti-HGG antibody response in mice treated with n-butyrate. Type of data set: in vivo. Also on record: Anti-HGG antibody in serum of individual mice: unit not given here. As to conditions: for Anti-HGG antibody in serum, group mean (x) / Anti-HGG antibody in serum of individual mice: ELISA day 9; for Anti-HGG antibody in serum, group mean (x): mean of 5 mice; for Anti-HGG antibody in serum of individual mice: HGG 100 μg ip day 0. The text has this:
Prior to testing the suppressive effects of butyrate prodrugs in vivo, the ability of n-butyrate to inhibit a primary antibody response in mice was examined.
On the technique in general: In an ELISA, binding on a coated surface is turned into a signal by an enzyme label.

[6] abbreviates: Experiment 1, 5.5 mg n-butyrate ip days 2–5.
Setting [7] is: Experiment 2, 5.5 mg n-butyrate ip days 2–6.

Regarding `CCCC(=O)OCCN1CCN(C(=O)CCC)CC1.Cl` [BEB, 2-(4-Butanoylpiperazinyl)ethyl butanoate hydrochloride], the “Effect on primary antigen-specific antibody production in vivo” value in data set [1] was “significantly less antigen-specific antibody than control mice”. Also, the “Suppression of IL-2-induced proliferation of Th1 cells” value in data set [2] was “comparable to n-butyrate”. For the same compound, the “Proliferation to IL-2 after compounds are washed out” value in data set [2] (washed after 24 hours, fresh IL-2 medium, additional 2 days) is on record as “regained their ability to proliferate to IL-2”.

On to `CCCC(=O)NCCN1CCOCC1.Cl` [MEBA, 2-(4-Morpholinyl)ethyl butanamide hydrochloride], for which, in data set [1], the “Effect on primary antigen-specific antibody production in vivo” value is listed as “unable to suppress”. Also, in data set [2], the “Suppression of IL-2-induced proliferation of Th1 cells” value was “does not suppress”.

With `CCCC(=O)O.CCCC(=O)O.CCCC(=O)O.CCCC(=O)O.N=C(N)NCCC[C@H](N)C(=O)O.N=C(N)NCCC[C@H](N)C(=O)O.N=C(N)NCCC[C@H](N)C(=O)O` [arginine salt of butyrate], the Toxicity entry in data set [3] was “nontoxic”.

As for `CCCC(=O)O` [n-butyrate], the half-life in vivo result in data set [4] is “six”; in data set [4] (listed as n-buytyrate), 3 to 6 min. For the same compound, the “Anti-HGG antibody in serum, group mean (x)” value in data set [5] (setting [6]) is on record as “x = 86 ± 72”; in data set [5] (setting [7]), “x = 12 ± 11”. Also, the “Anti-HGG antibody in serum of individual mice” value in data set [5] (setting [6]) was 202 and 91 and 29 and 83 and 24; in data set [5] (setting [7]), 12 and 6 and 4 and 9 and 31. In addition, in data set [5] (mice, n-butyrate ip, versus control), the “Suppression of primary antibody response” value was 40–50%.
